According to US9895342B2, “Cannabinoids for use in the treatment of neuropathic pain” (GW Pharma Limited, priority 2011, dated 2018):

Experiments:
SNI mice [1] = assay: Thermal hyperalgesia (Plantar Test Apparatus, paw withdrawal latency) in spared nerve injury mice; type: in vivo; details: for dose-dependence of effect on thermal withdrawal latency: 2.5 vs 5 mg/kg; for ability to treat neuropathic pain compared with CBD: thermal withdrawal data
Protocol: (§1) Peripheral neuropathic pain is produced by multiple etiological factors that initiate a number of diverse mechanisms at different sites and in different disease states. Spared nerve injury (SNI) consists of partial ligation and transaction of the sciatic nerve which evolves in neuropathic pain whose typical manifestations are represented by thermal hyperalgesia and tactile allodynia.
(§2) Chronic pain symptoms are measured through changes in thermoceptive responses (which is indicative of thermal hyperalgesia) using Plantar Test Apparatus (Ugo Basile, Varese, Italy) and in mechanical paw withdrawal threshold (which is indicative of mechanical allodynia) by a Dynamic Plantar Aesthesiometer (Ugo Basile, Varese, Italy). Nociceptive responses were measured before and after surgery in groups of mice differently treated (vehicle or drugs different combinations).
(§3) The cannabinoids tested were CBG, CBC, CBDV, and THCV. […] The cannabinoids were prepared from whole plant extracts of cannabis plants which had been purified. The cannabinoids were dissolved in ringer/0.5% dimethyl sulfoxide (DMSO), for intraperitoneal (i.p.) administration.
(§4) Male CD-1 mice (35-40 g) were housed, 3 per cage, under controlled illumination (12:12 h light:dark cycle; light on 06.00 h) and environmental conditions (room temperature 20-22° C., humidity 55-60%) for at least 1 week before the commencement of experiments. Mouse chow and tap water were available ad libitum. The experimental procedures were approved by the Ethic Committee of the Second University of Naples. Animal care was in compliance with the IASP and European Community (E.C. L358/1 18/12/86) guidelines on the use and protection of animals in experimental research. All efforts were made to minimize animal suffering and to reduce the number of animals used.
(§5) Behavioural testing was performed before surgery to establish a baseline for comparison with post-surgical values. Mononeuropathy was induced according to the method of Bourquin and Decosterd (2006).
(§6) Mice were anaesthetized with sodium pentobarbital (60 mg/kg i.p.). The right hindlimb was immobilized in a lateral position and slightly elevated. Incision was made at mid-thigh level using the femur as a landmark. The sciatic nerve was exposed at mid-thigh level distal to the trifurcation and freed of connective tissue; the three peripheral branches (sural, common peroneal, and tibial nerves) of the sciatic nerve were exposed without stretching nerve structures.
(§7) Both tibial and common peroneal nerves were ligated and transacted together. A micro-surgical forceps with curved tips was delicately placed below the tibial and common peroneal nerves to slide the thread (5.0 silk, Ethicon, Johnson, and Johnson Intl, Brussels, Belgium) around the nerves. A tight ligation of both nerves was performed. The sural nerve was carefully preserved by avoiding any nerve stretch or nerve contact with surgical tools. Muscle and skin were closed in two distinct layers with silk 5.0 sutures.
(§8) Intense, reproducible and long-lasting thermal hyperalgesia and mechanical allodynia-like behaviors are measurable in the non-injured sural nerve skin territory. The SNI model offers the advantage of a distinct anatomical distribution with an absence of co-mingling of injured and non-injured nerve fibers distal to the lesion such as the injured and non-injured nerves and territories can be readily identified and manipulated for further analysis (i.e. behavioral assessment).
(§9) The sham procedure consisted of the same surgery without ligation and transection of the nerves.
(§10) The groups of mice were divided as follows, each cannabinoid tested has its own group of mice:
(§11) The cannabinoids were dosed daily for 14 days. Doses for all cannabinoids tested were: 2.5 and 5.0 mg/Kg. Vehicle solution was 0.5% DMSO in ringer solution.
Thermal hyperalgesia was evaluated by using a Plantar Test Apparatus (Ugo Basile, Varese, Italy). […]

SNI mice [2] = assay: Mechanical allodynia (Dynamic Plantar Aesthesiometer, paw withdrawal threshold) in spared nerve injury mice; type: in vivo; details: for MECHANICAL WITHDRAWAL THRESHOLD: SNI mice; for overall efficacy, mechanical withdrawal: both of the doses tested (2.5 and 5 mg/kg); for ability to treat neuropathic pain compared with CBD: mechanical withdrawal data
Protocol: as §1, §2, §3, §4, §5, §6, §7, §8, §9, §10, §11
Mechanical allodynia was measured by using Dynamic Plantar Anesthesiometer (Ugo Basile, Varese, Italy). […]

patients = details: cited from earlier work
[3] = SNI mice, 2.5 mg/kg i.p. daily, DAY 3
[4] = SNI mice, 2.5 mg/kg i.p. daily, DAY 7
[5] = SNI mice, 2.5 mg/kg i.p. daily, DAY 14
[6] = SNI mice, 5 mg/kg i.p. daily, DAY 3
[7] = SNI mice, 5 mg/kg i.p. daily, DAY 7
[8] = SNI mice, 5 mg/kg i.p. daily, DAY 14

Row | Structure (SMILES) | overall efficacy, thermal withdrawal (SNI mice [1]; 2.5 mg/kg) | dose-dependence of effect on thermal withdrawal latency (SNI mice [1]) | THERMAL WITHDRAWAL LATENCY (SNI mice [1]; [3]) | THERMAL WITHDRAWAL LATENCY (SNI mice [1]; [4]) | THERMAL WITHDRAWAL LATENCY (SNI mice [1]; [5]) | THERMAL WITHDRAWAL LATENCY (SNI mice [1]; [6]) | THERMAL WITHDRAWAL LATENCY (SNI mice [1]; [7]) | THERMAL WITHDRAWAL LATENCY (SNI mice [1]; [8]) | ability to treat neuropathic pain compared with CBD (SNI mice [1]) | MECHANICAL WITHDRAWAL THRESHOLD (SNI mice [2]; 2.5 mg/kg i.p. daily, DAY 3) | MECHANICAL WITHDRAWAL THRESHOLD (SNI mice [2]; 2.5 mg/kg i.p. daily, DAY 7) | MECHANICAL WITHDRAWAL THRESHOLD (SNI mice [2]; 2.5 mg/kg i.p. daily, DAY 14) | MECHANICAL WITHDRAWAL THRESHOLD (SNI mice [2]; 5 mg/kg i.p. daily, DAY 3) | MECHANICAL WITHDRAWAL THRESHOLD (SNI mice [2]; 5 mg/kg i.p. daily, DAY 7) | MECHANICAL WITHDRAWAL THRESHOLD (SNI mice [2]; 5 mg/kg i.p. daily, DAY 14) | overall efficacy, mechanical withdrawal (SNI mice [2]) | ability to treat neuropathic pain compared with CBD (SNI mice [2]) | further results
1 | CCCCCc1cc(O)c(C/C=C(\C)CCC=C(C)C)c(O)c1 [CBG, cannabigerol] | highest thermal withdrawal latency of all the cannabinoids | do not appear to be dose-dependent | 5.5 s | 5.4 s | 7.0 s | 7.8 s | 7.6 s | 7.5 s | superior to CBD | 3.4 g | 6.1 g | 7.8 g | 6.0 g | 6.1 g | 7.8 g | good efficacy | superior to CBD | THERMAL WITHDRAWAL LATENCY (SNI mice [1]; 2.5 mg/kg, day 3): increase in the amount of thermal withdrawal latency; THERMAL WITHDRAWAL LATENCY (SNI mice [1]; 5.0 mg/kg, day 3): able to increase the amount of time before the animal withdrew its paw
2 | CCCc1cc(O)c2c(c1)OC(C)(C)[C@@H]1CCC(C)=C[C@@H]21 [THCV, tetrahydrocannabivarin] | good efficacy | do not appear to be dose-dependent | 3.8 s | 9.8 s | 7.6 s | 3.9 s | 10.5 s | 11.9 s | superior to CBD | 3.0 g | 6.2 g | 7.5 g | 3.2 g | 8.5 g | 9.8 g | good efficacy | superior to CBD | thermal withdrawal latency, course over time (SNI mice [1]; 2.5 mg/kg, day 7 to day 14): large increase at the day 7 time point which then decreases after a further 7 days; overall efficacy, thermal withdrawal (SNI mice [1]; 5.0 mg/kg): most effective; THERMAL WITHDRAWAL LATENCY (SNI mice [1]; 5.0 mg/kg, 14 days): large increase
3 | NC(=O)N1c2ccccc2C=Cc2ccccc21 [carbamezepine] |  |  |  |  |  |  |  |  |  |  |  |  |  |  |  |  |  | decrease in white blood cell count (patients; in 7% of patients): 25%; increase in the risk of blood dyscrasias (patients; post-marketing studies, patients taking carbamezepine): five- to eight-fold
